Source: patent US12590950B2, “Methods for predicting ER-mediated DNA damage” (UNIVERSITY OF MASSACHUSETTS, priority 2019, dated 2026)
Entries after “also recorded” stand apart in the source; their conditions may differ.

Tests used:
[1] = system: Areg and Pgr; experiment: Acute oral exposure of ovariectomized mice: Areg and Pgr expression in mammary gland; format: in vivo, mouse; conditions: 4 days, E2 250, BP3 3,000, PP 10,000 μg/kg/day
Description: (§1) RT-qPCR: RNA from T47D cells, MCF-7 Cells or flash-frozen 4th mammary gland was isolated with TRIzol (Thermofisher Scientific #15596018) and Direct-zol RNA MiniPrep Plus (Zymo Research #R2072). cDNA was prepared with Protoscript II First Strand cDNA Synthesis Kit (New England Biolabs #E6560S) and qPCR for TFF1, progesterone receptor (PGR) and Amphiregulin (AREG) was performed on CFX96 Real-Time System thermocycler (Bio-Rad) using primers in Table 1.
(§2) Animal Treatment: Forty mature female mice (8 weeks old) BALB/c mice were purchased from Jackson Laboratory and housed in temperature-controlled facilities with a 12-hour alternating day/night light cycle and fed LabChow 5058 ad libitum. All procedures were in accordance with the national guidelines for the care and use of animals and approved by the University of Massachusetts Amherst's Institutional Animal Care and Use Committee.
(§3) The mice were ovariectomized before treatment. Briefly, each mouse was anaesthetized with a mix of isofluorance and oxygen. The flanks were shaved, sterilized with betadine and cleaned with alcohol. An incision was made to the skin on the right flank. The underlying muscle layer was nicked to reveal a small hole through which ovary was pulled out by grasping the periovarian fat. A Serrifin clamp was used to hold the ovary. After making sure the blood vessels were constricted to prevent […], the ovary was cut from the uterine horn. The periovarian fat was restored into the peritoneum. The peritoneum was closed with one or two stiches and the skin was closed with 9 mm wound clips. The procedure was repeated on the contralateral side. The mouse was monitored for a week post-procedure and wound clips were removed after 10 days. After 1 week of recovery, the mice began an acute oral treatment via pipette with one of three different compounds prepared in tocopherol-stripped corn oil for 4 days. Each mouse was administered 1 μL of oil per gram of body weight to deliver 250 μg/kg/d E2, 3000 μg/kg/d BP3 or 10000 μg/kg/d PP or vehicle control. […]

[2] = system: TFF1; experiment: RT-qPCR of estrogen-responsive gene TFF1 in T47D cells; format: cell-based, human; conditions: T47D; for expression of TFF1 vs control: 5 μM
Description: as §1

[3] = system: T47D cells; experiment: 53BP1 immunostaining in T47D cells; format: cell-based, human; conditions: E2 10-100 nM, BP3 1-5 μM, PP 1-5 μM
[4] = system: mammary gland; experiment: Acute oral exposure of ovariectomized mice: nuclear γH2AX in mammary gland; format: in vivo, mouse; conditions: 4 days, E2 250, BP3 3,000, PP 10,000 μg/kg/day
From the text: as §2, §3
Immunostaining of mouse mammary gland: Freshly cut […] paraffin-embedded sections were deparaffinized/rehydrated with 100% xylenes 3 times for 5 min each, 2 times with 100% ethanol for 5 min each, 95% ethanol for 3 min and 70% ethanol for 3 min. […] Analysis of S9.6 intensity per nucleus or foci per nucleus were calculated using Nikon analysis software, where DAPI was used as a mask for the nucleus. […] Positive cells were counted using ImageJ software. 1200 cells were counted to determine percent Ki67 positive.

[5] = system: MCF-7 cells; experiment: γH2AX immunostaining (DNA damage) in MCF-7 cells; format: cell-based, human; conditions: E2 10-100 nM, BP3 1-30 μM, PP 1-30 μM
Description: Immunostaining: Cells were grown in clearing media for 48 h and plated on 20 mm coverslip in 12 well plates with a density of 2×10^5 cells/well. […] Cells were washed with 1×PBS, blocked in 2% BSA/PBS with 0.1% Triton-X 100 for 1 hr at room temperature (RT), incubated overnight with γH2AX antibody (Cell Signaling #9718 S) or ERα antibody (Santa Cruz Biotechnology #sc-8002) at 4° C. and 1 hour with secondary antibody. S9.6: Cells were fixed in ice-cold 100% methanol for 10 min at −20° C., permeabilized in 100% acetone for 1 min at RT, blocked for 30 min in saline sodium citrate pH 7 (SSC, 4×), 3% BSA, 0.1% Triton-X and incubated with S9.6 (Kerafast #ENH001) 2 hr at RT followed by 1 h with secondary antibody. If indicated, slides were treated with RNase H (NEB #M0297L) for 4 hr at 37° C. prior to incubation with primary antibody. Stained cells were mounted with Vectashield mounting medium containing DAPI (Vector Laboratories #H-1200). Slides were imaged at 60× (immersion oil) with Nikon A1 Spectral Confocal microscope. Analysis of γH2AX and S9.6 intensity per nucleus or foci per nucleus was calculated using Nikon analysis software, where DAPI was used as a mask for the nucleus.

## C[C@]12CC[C@@H]3c4ccc(O)cc4CC[C@H]3[C@@H]1CC[C@@H]2O [E2, 17β-estradiol, reference compound]
[1]
  transcriptional activation of ER-target genes (Areg and Pgr): stimulated
[2]; 10 nM
  increase in expression of TFF1: 13.1 fold
[3]
  53BP1 nuclear intensity: dose-dependent increases in 53BP1 nuclear intensity
[4]
  nuclear γH2AX intensity in the mammary gland vs vehicle control: significantly higher
[5]
  nuclear γH2AX intensity: dose-dependent increase in nuclear γH2AX intensity

## COc1ccc(C(=O)c2ccccc2)c(O)c1 [BP3, 2-Hydroxy-4-methoxybenzophenone]
[1]
  transcriptional activation of ER-target genes (Areg and Pgr): neither BP3 nor PP elicited significant responses
[2]
  expression of TFF1 vs control: did not differ from the control
[3]
  53BP1 nuclear intensity: higher nuclear 53BP1 intensity over control
[4]
  nuclear γH2AX intensity in the mammary gland vs vehicle control: significantly higher; also recorded: increases
[5]
  nuclear γH2AX intensity: dose-dependent increase in nuclear γH2AX intensity

## CCCOC(=O)c1ccc(O)cc1 [PP, propyl parahydroxybenzoate]
[1]
  transcriptional activation of ER-target genes (Areg and Pgr): neither BP3 nor PP elicited significant responses
[2]
  expression of TFF1 vs control: did not differ from the control
[3]
  53BP1 nuclear intensity: dose-dependent increases in 53BP1 nuclear intensity
[4]
  nuclear γH2AX intensity in the mammary gland vs vehicle control: increases
[5]
  nuclear γH2AX intensity: dose-dependent increase in nuclear γH2AX intensity
